Test results published in US20120152149A1, “USE OF 1,3-DIOLS AS BIOCIDES” (BASF SE, priority 2009, published 2012).
Like-named read-outs stand apart in the source and are kept apart here.

Legend:
Assay type in all cases: cell-based
P. aeruginosa ATCC 15442 = test: Preservation stress test, example formulation 1 (standard emulsion O/W); conditions: 1% active substance
Protocol: (§1) Preservation stress tests (PSTs) were carried out in order to determine the preserving activity of the diols. In the preservation stress test, this is simulated through artificial loadings with microorganisms. These can either be inoculated as mixed population or individually in mixtures independent of one another. The inoculated product samples are incubated under defined conditions and, after defined times, samples are taken in order to determine the germ loading. In the case of adequate preservation, the number of microorganisms should, depending on the type, either decrease or remain constant in order to satisfy the requirements specified, e.g. in Ph. Eur. 6.0. To investigate the preserving effect of the diols, application-typical amounts of the diols were incorporated into example formulations. […] [table] These example formulations were used to prepare various mixtures which each comprised 1% active substance or comprised water instead of the active substance as placebo mixtures. These mixtures were in each case inoculated with the test germs such that a germ loading of 10^5-10^6 CFU/g was present in the test mixture. The bacteria were either used individually for the inoculation or as a mixed culture. To determine the starting germ count, immediately after inoculation, an aliquot was taken, diluted in dilution medium (phosphate buffer, 0.07 molar pH 7.4 (+/−0.2), with 1% Tween 80+0.3% soya lecithin), and the surviving germ count was determined in the dilution stages 10^−1 to 10^−3. The inoculated product samples then incubated for a total of 28 d at 20-25° C. After 2 d, 7 d, 14 d and after 28 d, aliquots were taken and diluted in dilution medium (phosphate buffer, 0.07 molar pH 7.4 (+/−0.2), with 1% Tween 80+0.3% soya lecithin). The surviving germ counts were determined in the dilution stages 10^−1 to 10^−4. The reference point taken for determining the reduction in germ count was the respective initial value of the sample. The results were given as logarithmic reductions.

C. albicans ATCC 10231 = test: as above; conditions: 1% active substance
Protocol: as §1

A. niger ATCC 16404 = test: as above; conditions: 1% active substance
Protocol: as §1

E. coli ATCC 10536 = test: as above; conditions: 1% active substance
Protocol: as §1

S. aureus ATCC 6538 = test: as above; conditions: 1% active substance
Protocol: as §1

P. vulgaris NCIMB 4175 = test: Microstatic activity, MIC in tryptone soy broth; conditions: Proteus vulgaris, NCIMB4175, 30° C., 48 hours
Protocol: (§2) For this, in each case a 40 percent strength by weight solution of a diol in propylene glycol was prepared at 60° C. This solution was diluted with a double-strength soy solution (double-strength tryptone soy broth) as nutrient medium in the volume ratio 1:1. Further dilution with soy solution produced solutions with the following concentrations: 400 000 ppm (40%), 200 000 ppm (20%), 100 000 ppm (10%), 50 000 ppm (5%), 25 000 ppm (2.5%), 12 500 ppm (1.25%), 6250 ppm (0.625%), 3125 ppm (0.3125%). Pure soy solution was used as negative control. The positive control used was a solution of 5 ml of soy solution which has been treated with 0.1 ml of the respective microorganism. The test solutions consisted of 5 ml of the above-described soy solutions of the diols in the particular concentration which have been mixed with 0.1 ml of the respective microorganism. The samples and controls were incubated in the case of the bacteria at 30° C. for 48 hours, and in the case of fungi over 5 days at 25° C. In each case, the MIC (Minimum Inhibitory Concentration) value was determined. This value indicates the minimum concentration above which the growth of the microorganisms was visibly hindered compared to the corresponding sample without addition of the diol. […] For example, this was evident from the occurrence of clouding or visible growth of the microorganism. […] The MIC value stated is a range between the next higher concentration of a positive test and the same and/or lower concentration of a first negative test.

[1] = system: P. aeruginosa NCIMB 10421; test: Microstatic activity, MIC in tryptone soy broth; conditions: Pseudomonas aeruginosa, NCIMB10421, 30° C., 48 hours
Protocol: as §2

S. aureus NCIMB 9578 = test: Microstatic activity, MIC in tryptone soy broth; conditions: Staphylococcus aureus, NCIMB9578, 30° C., 48 hours
Protocol: as §2

C. albicans NCPF 3179 = test: Microstatic activity, MIC in tryptone soy broth; conditions: Candida albicans, NCPF3179, 120 h, 25° C., 5 days
Protocol: as §2

E. coli NCIMB 8545 = test: Microstatic activity, MIC in tryptone soy broth; conditions: 48 hours; for MIC: Escherichia coli, NCIMB8545, 30° C.
Protocol: as §2

A. niger IMI 149007 = test: Microstatic activity, MIC in tryptone soy broth; conditions: Aspergillus niger, IMI149007, 120 h, 25° C., 5 days
Protocol: as §2

[2] = system: series of tested microorganisms (bacteria and fungi); test: Microstatic activity, highest MIC from the series of tested microorganisms; conditions: highest measured MIC from the series of tested microorganisms
Protocol: The following microorganisms were used;to test the biocidal effect against various bacteria and fungi: In each case, the MIC (Minimum Inhibitory Concentration) value was determined. This value indicates the minimum concentration above which the growth of the microorganisms was visibly hindered compared to the corresponding sample without addition of the diol. The MIC value stated is a range between the next higher concentration of a positive test and the same and/or lower concentration of a first negative test. In the last line of each of the tables below, a “maximum” value is listed. This value indicates the highest measured MIC value in each case from the series of tested microorganisms.

[3] = lower limit of MIC range, read-out: MIC value (ppm of diol), from
[4] = upper limit of MIC range, read-out: MIC value (ppm of diol), to
[5] = lower limit, read-out: Maximum MIC value (ppm of diol), from
[6] = upper limit, read-out: Maximum MIC value (ppm of diol), to

| Structure (SMILES) | MIC (P. vulgaris NCIMB 4175; [3]) | MIC (P. vulgaris NCIMB 4175; [4]) | MIC [1, 3] | MIC [1, 4] | MIC (S. aureus NCIMB 9578; [3]) | MIC (S. aureus NCIMB 9578; [4]) | MIC (C. albicans NCPF 3179; [3]) | MIC (C. albicans NCPF 3179; [4]) | MIC (E. coli NCIMB 8545; [3]) | MIC (E. coli NCIMB 8545; [4]) | MIC (A. niger IMI 149007; [3]) | MIC (A. niger IMI 149007; [4]) | MIC [2, 5] | MIC [2, 6] | other results |
| --- | --- | --- | --- | --- | --- | --- | --- | --- | --- | --- | --- | --- | --- | --- | --- |
| CCCCC(O)CO (centres unmarked) [1,2-Hexanediol, 1,2-hexanediol] |  |  |  |  |  |  |  |  |  |  |  |  |  |  | Microbicidal activity given as logarithmic reduction in germ count (P. aeruginosa ATCC 15442; 48 h): 0 log. Red.; Microbicidal activity given as logarithmic reduction in germ count (P. aeruginosa ATCC 15442; 7 d): 1 log. Red.; Microbicidal activity given as logarithmic reduction in germ count (P. aeruginosa ATCC 15442; 14 d): 1 log. Red.; Microbicidal activity given as logarithmic reduction in germ count (P. aeruginosa ATCC 15442; 28 d): ≧3 log. Red.; Microbicidal activity given as logarithmic reduction in germ count (C. albicans ATCC 10231; 48 h): 0 log. Red.; Microbicidal activity given as logarithmic reduction in germ count (C. albicans ATCC 10231; 7 d): 0 log. Red.; Microbicidal activity given as logarithmic reduction in germ count (C. albicans ATCC 10231; 14 d): 0 log. Red.; Microbicidal activity given as logarithmic reduction in germ count (C. albicans ATCC 10231; 28 d): 1 log. Red.; Microbicidal activity given as logarithmic reduction in germ count (A. niger ATCC 16404; 48 h): 0 log. Red.; Microbicidal activity given as logarithmic reduction in germ count (A. niger ATCC 16404; 7 d): 0 log. Red.; Microbicidal activity given as logarithmic reduction in germ count (A. niger ATCC 16404; 14 d): 0 log. Red.; Microbicidal activity given as logarithmic reduction in germ count (A. niger ATCC 16404; 28 d): 0 log. Red.; Microbicidal activity given as logarithmic reduction in germ count (E. coli ATCC 10536; 48 h): 0 log. Red.; Microbicidal activity given as logarithmic reduction in germ count (E. coli ATCC 10536; 7 d): 1 log. Red.; Microbicidal activity given as logarithmic reduction in germ count (E. coli ATCC 10536; 14 d): 2 log. Red.; Microbicidal activity given as logarithmic reduction in germ count (E. coli ATCC 10536; 28 d): ≧3 log. Red.; Microbicidal activity given as logarithmic reduction in germ count (S. aureus ATCC 6538; 48 h): 1 log. Red.; Microbicidal activity given as logarithmic reduction in germ count (S. aureus ATCC 6538; 7 d): 1 log. Red.; Microbicidal activity given as logarithmic reduction in germ count (S. aureus ATCC 6538; 14 d): ≧3 log. Red.; Microbicidal activity given as logarithmic reduction in germ count (S. aureus ATCC 6538; 28 d): 5 log. Red. |
| CC(O)CC(C)O (centres unmarked) [2,4-Pentanediol, 2,4-pentanediol, reference compound] | > 50 mg/mL | ≤ 100 mg/mL | > 50 mg/mL | ≤ 100 mg/mL | > 50 mg/mL | ≤ 100 mg/mL | > 50 mg/mL | ≤ 100 mg/mL | > 50 mg/mL | ≤ 100 mg/mL |  |  |  |  |  |
| CCCCC(CC)(CO)CO [BEPD, 2-butyl-2-ethylpropane-1,3-diol] | > 3.12 mg/mL | ≤ 6.25 mg/mL | > 50 mg/mL | ≤ 100 mg/mL | > 12.5 mg/mL | ≤ 25 mg/mL | > 25 mg/mL | ≤ 50 mg/mL | > 6.25 mg/mL | ≤ 12.5 mg/mL | > 12.5 mg/mL | ≤ 25 mg/mL | > 50 mg/mL | ≤ 100 mg/mL |  |
| OCC1(CO)CCCCC1 [DMCH, 1,1-dimethylolcyclohexane] | > 12.5 mg/mL | ≤ 25 mg/mL | > 12.5 mg/mL | ≤ 25 mg/mL | > 12.5 mg/mL | ≤ 25 mg/mL | > 25 mg/mL | ≤ 50 mg/mL | > 6.25 mg/mL | ≤ 12.5 mg/mL | > 25 mg/mL | ≤ 50 mg/mL | > 25 mg/mL | ≤ 50 mg/mL |  |
| OCC1(CO)CCCCCCC1 [DMCO, 1,1-dimethylolcyclooctane] | > 6.25 mg/mL | ≤ 12.5 mg/mL | > 12.5 mg/mL | ≤ 25 mg/mL | > 6.25 mg/mL | ≤ 12.5 mg/mL | > 6.25 mg/mL | ≤ 12.5 mg/mL | > 3.12 mg/mL | ≤ 6.25 mg/mL | > 6.25 mg/mL | ≤ 12.5 mg/mL | > 12.5 mg/mL | ≤ 25 mg/mL |  |
| OCC1(CO)CC/C=C\CCC1 [DMCOE, 1,1-dimethylolcyclooct-4-ene] | > 3.12 mg/mL | ≤ 6.25 mg/mL | > 12.5 mg/mL | ≤ 25 mg/mL | > 6.25 mg/mL | ≤ 12.5 mg/mL | > 12.5 mg/mL | ≤ 25 mg/mL | > 3.12 mg/mL | ≤ 6.25 mg/mL | > 12.5 mg/mL | ≤ 25 mg/mL | > 12.5 mg/mL | ≤ 25 mg/mL |  |
| CCC(C)(CO)CO [EMPD, 2-ethyl-2-methylpropane-1,3-diol] | > 25 mg/mL | ≤ 50 mg/mL | > 12.5 mg/mL | ≤ 25 mg/mL | > 25 mg/mL | ≤ 50 mg/mL | > 50 mg/mL | ≤ 100 mg/mL | > 12.5 mg/mL | ≤ 25 mg/mL | > 50 mg/mL | ≤ 100 mg/mL | > 50 mg/mL | ≤ 100 mg/mL |  |
| CC(C)CCC(CO)(CO)C(C)C [IMBPD, 2-isopropyl-2-(3-methylbutyl)propane-1,3-diol] | > 50 mg/mL | ≤ 100 mg/mL | > 100 mg/mL |  | > 50 mg/mL | ≤ 100 mg/mL | > 25 mg/mL | ≤ 50 mg/mL | > 25 mg/mL | ≤ 50 mg/mL | > 12.5 mg/mL | ≤ 25 mg/mL | > 100 mg/mL |  |  |
| CC(CO)(CO)c1ccccc1 [MPPD, 2-methyl-2-phenylpropane-1,3-diol] | > 3.12 mg/mL | ≤ 6.25 mg/mL | > 25 mg/mL | ≤ 50 mg/mL | > 12.5 mg/mL | ≤ 25 mg/mL | > 50 mg/mL | ≤ 100 mg/mL |  | ≤ 3.12 mg/mL | > 50 mg/mL | ≤ 100 mg/mL | > 50 mg/mL | ≤ 100 mg/mL | MIC value (ppm of diol), from (E. coli NCIMB 8545; 30° C., lower limit of MIC range): >0 ppm |
| CC(O)CO (centres unmarked) [Propylene glycol, propylene glycol, reference compound] | > 100 mg/mL |  | > 100 mg/mL |  |  |  |  |  |  |  |  |  |  |  |  |
